One compound from ChEMBL document CHEMBL4265889, “Design and synthesis of tetrahydropyridopyrimidine based Toll-Like Receptor (TLR) 7/8 dual agonists” (Bioorg Med Chem Lett, 2018) can be followed below.

Data set [1] relates to Mus musculus. The experiment in a line: Induction of innate immune response in C57BL/6 mouse assessed as IP-10 Cmax in liver at 5 mg/kg, po. Set-up: dose 5 mg/kg. It counts as functional, organism-based.
Data set [2] has as its target Cytochrome P450 2D6 (Homo sapiens, UniProt P10635). In words: Inhibition of CYP2D6 (unknown origin). It counts as ADME.
The nature of data set [3]: AUC (0 to last) in C57BL/6 mouse liver at 5 mg/kg, po. The data set is classed as ADME, organism-based. The settings on record: in vivo.
In data set [4] the target is T1, Cytochrome P450 1A2 (Homo sapiens, UniProt P05177).
T1 sequence (P05177 whole entry): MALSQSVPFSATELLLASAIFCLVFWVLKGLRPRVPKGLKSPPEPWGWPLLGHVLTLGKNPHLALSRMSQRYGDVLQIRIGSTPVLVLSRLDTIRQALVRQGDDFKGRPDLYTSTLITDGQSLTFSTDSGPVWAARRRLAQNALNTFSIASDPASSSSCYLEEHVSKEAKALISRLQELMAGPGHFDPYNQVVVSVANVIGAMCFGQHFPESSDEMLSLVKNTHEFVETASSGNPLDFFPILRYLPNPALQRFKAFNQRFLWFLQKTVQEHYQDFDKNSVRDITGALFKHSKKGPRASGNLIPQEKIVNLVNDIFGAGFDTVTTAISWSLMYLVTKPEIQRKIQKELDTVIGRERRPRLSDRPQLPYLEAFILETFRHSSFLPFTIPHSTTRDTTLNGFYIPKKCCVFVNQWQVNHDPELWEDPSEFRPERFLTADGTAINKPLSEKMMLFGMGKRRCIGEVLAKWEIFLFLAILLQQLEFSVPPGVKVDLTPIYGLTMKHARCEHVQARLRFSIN
The experiment in a line: Inhibition of CYP1A2 (unknown origin). The data set is classed as ADME.

The nature of data set [5]: Tmax in C57BL/6 mouse plasma at 5 mg/kg, po. It counts as ADME, organism-based.
Data set [6] is described as follows: AUC (0 to last) in C57BL/6 mouse plasma at 5 mg/kg, po. The data set is classed as ADME, organism-based. On the set-up: dose 5 mg/kg, route oral, time 0 - last.
The target in data set [7] is Voltage-gated inwardly rectifying potassium channel KCNH2 (Homo sapiens, UniProt Q12809). The experiment in a line: Displacement of 3H-dofetilide from human ERG. On the technique in general: In a radioligand displacement assay an active substance lowers the binding of a labelled ligand.
A short description of data set [8]: Protein binding in mouse plasma. It counts as ADME, cell-free. The conditions noted are these: read-out: PPB (converted).
In data set [9] the test system is Mus musculus. The experiment in a line: Induction of innate immune response in C57BL/6 mouse assessed as IFNalpha Cmax in liver at 5 mg/kg, po. The data set is classed as functional, organism-based. Set-up: dose 5 mg/kg.
Data set [10] deals with Dopamine receptor (Homo sapiens) (UniProt P14416+P35462+P21918+P21917+P21728). In words: Binding affinity to dopamine receptor (unknown origin). It counts as protein assay.
Data set [11] concerns the target Cytochrome P450 2C9 (Homo sapiens, UniProt P11712). The experiment in a line: Inhibition of CYP2C9 (unknown origin). It counts as ADME.
Data set [12] is filed under the species Homo sapiens. The experiment in a line: Binding affinity to serotonin receptor (unknown origin).
Data set [13] addresses T2, Toll-like receptor 7 (Homo sapiens) (UniProt Q9NYK1).
T2 sequence (whole entry): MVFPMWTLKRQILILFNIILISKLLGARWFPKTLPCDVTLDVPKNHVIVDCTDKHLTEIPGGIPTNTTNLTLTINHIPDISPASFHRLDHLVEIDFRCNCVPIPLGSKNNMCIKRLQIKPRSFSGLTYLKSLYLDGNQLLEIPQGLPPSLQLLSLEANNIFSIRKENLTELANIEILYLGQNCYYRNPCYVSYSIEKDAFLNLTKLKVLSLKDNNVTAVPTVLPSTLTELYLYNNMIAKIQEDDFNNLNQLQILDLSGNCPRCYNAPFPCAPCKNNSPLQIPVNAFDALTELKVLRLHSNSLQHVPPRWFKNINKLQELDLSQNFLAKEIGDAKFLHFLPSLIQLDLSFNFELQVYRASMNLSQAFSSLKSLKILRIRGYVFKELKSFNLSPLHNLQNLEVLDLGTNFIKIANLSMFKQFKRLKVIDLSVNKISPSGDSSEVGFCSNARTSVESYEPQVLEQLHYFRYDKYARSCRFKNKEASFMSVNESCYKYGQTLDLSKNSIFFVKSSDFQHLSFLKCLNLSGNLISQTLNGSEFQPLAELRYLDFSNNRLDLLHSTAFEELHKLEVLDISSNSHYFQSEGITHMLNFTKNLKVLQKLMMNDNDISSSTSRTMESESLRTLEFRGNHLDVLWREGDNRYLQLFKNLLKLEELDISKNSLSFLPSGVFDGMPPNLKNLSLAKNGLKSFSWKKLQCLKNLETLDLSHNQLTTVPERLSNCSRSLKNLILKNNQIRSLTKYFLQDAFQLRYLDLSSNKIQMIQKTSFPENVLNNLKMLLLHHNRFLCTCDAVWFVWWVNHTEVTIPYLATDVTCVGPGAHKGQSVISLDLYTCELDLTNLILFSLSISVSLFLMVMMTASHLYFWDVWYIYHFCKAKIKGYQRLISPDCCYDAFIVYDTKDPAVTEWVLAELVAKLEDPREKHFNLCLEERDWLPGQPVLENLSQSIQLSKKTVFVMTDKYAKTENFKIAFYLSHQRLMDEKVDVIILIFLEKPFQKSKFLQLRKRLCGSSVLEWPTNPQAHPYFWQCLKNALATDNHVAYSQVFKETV
In words: Agonist activity at human TLR7 expressed in HEK293 cells after 6 hrs by NFkappaB-luciferase reporter gene assay. It counts as cell-based. For orientation: A reporter such as luciferase makes a cellular process visible.

Data set [14] in a line: Cmax in C57BL/6 mouse liver at 5 mg/kg, po. It counts as ADME, organism-based. On the set-up: dose 5 mg/kg, route oral.
Data set [15] is filed under the species Homo sapiens. The experiment in a line: Binding affinity to histamine receptor (unknown origin).
A short description of data set [16]: Cytotoxicity against HEK293 cells transfected with the CMV-TLR7 construct assessed as reduction in cell viability after 6 hrs by ATPlite assay. It counts as cell-based. The settings on record: human. (Cellular ATP, detected with luciferase, serves as a proxy for viable cell number.)
Data set [17] has as its target T3, Cytochrome P450 2C8 (Homo sapiens, UniProt P10632).
T3 sequence (P10632 whole entry): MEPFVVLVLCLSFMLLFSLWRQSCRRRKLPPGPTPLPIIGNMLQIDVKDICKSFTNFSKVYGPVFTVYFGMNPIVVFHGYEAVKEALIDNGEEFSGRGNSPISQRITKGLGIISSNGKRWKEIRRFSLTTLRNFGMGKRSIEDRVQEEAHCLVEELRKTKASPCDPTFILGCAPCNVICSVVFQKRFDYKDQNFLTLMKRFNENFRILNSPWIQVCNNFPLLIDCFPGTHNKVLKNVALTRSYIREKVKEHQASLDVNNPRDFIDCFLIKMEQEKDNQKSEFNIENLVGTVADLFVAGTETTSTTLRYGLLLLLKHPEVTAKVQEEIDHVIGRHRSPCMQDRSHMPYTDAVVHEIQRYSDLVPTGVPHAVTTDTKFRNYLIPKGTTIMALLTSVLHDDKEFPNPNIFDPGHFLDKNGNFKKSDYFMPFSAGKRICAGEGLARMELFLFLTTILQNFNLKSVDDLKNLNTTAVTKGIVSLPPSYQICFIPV
The experiment in a line: Inhibition of CYP2C8 (unknown origin). The data set is classed as ADME.

For data set [18], the system named is Mus musculus. In words: Induction of innate immune response in C57BL/6 mouse assessed as IP-10 Tmax at 5 mg/kg, po. The data set is classed as functional, organism-based.
In data set [19] the target is Cytochrome P450 3A4 (Homo sapiens, UniProt P08684). In words: Inhibition of CYP3A4 (unknown origin). The data set is classed as ADME.
Data set [20] can be described thus: Cmax in C57BL/6 mouse plasma at 5 mg/kg, po. Set-up: dose 5 mg/kg, route oral. The data set is classed as ADME, organism-based.

A value given as a limit tells only on which side of the number the result lay.

Cytochrome P450 3A4, sequence (P08684 whole entry): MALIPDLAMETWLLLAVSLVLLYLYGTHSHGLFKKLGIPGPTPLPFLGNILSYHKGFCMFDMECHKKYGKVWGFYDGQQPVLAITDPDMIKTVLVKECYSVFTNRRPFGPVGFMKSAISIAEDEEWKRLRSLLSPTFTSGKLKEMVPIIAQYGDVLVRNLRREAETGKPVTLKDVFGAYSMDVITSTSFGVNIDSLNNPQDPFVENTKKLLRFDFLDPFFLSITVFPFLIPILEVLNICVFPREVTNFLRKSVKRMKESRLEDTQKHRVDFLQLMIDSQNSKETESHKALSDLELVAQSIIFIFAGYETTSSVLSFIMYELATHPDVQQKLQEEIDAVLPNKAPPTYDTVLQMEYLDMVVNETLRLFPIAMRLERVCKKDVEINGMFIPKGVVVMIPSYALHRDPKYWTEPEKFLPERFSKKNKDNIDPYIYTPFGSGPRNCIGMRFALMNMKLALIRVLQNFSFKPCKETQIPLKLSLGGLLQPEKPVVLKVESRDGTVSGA
Voltage-gated inwardly rectifying potassium channel KCNH2, sequence (Q12809 whole entry): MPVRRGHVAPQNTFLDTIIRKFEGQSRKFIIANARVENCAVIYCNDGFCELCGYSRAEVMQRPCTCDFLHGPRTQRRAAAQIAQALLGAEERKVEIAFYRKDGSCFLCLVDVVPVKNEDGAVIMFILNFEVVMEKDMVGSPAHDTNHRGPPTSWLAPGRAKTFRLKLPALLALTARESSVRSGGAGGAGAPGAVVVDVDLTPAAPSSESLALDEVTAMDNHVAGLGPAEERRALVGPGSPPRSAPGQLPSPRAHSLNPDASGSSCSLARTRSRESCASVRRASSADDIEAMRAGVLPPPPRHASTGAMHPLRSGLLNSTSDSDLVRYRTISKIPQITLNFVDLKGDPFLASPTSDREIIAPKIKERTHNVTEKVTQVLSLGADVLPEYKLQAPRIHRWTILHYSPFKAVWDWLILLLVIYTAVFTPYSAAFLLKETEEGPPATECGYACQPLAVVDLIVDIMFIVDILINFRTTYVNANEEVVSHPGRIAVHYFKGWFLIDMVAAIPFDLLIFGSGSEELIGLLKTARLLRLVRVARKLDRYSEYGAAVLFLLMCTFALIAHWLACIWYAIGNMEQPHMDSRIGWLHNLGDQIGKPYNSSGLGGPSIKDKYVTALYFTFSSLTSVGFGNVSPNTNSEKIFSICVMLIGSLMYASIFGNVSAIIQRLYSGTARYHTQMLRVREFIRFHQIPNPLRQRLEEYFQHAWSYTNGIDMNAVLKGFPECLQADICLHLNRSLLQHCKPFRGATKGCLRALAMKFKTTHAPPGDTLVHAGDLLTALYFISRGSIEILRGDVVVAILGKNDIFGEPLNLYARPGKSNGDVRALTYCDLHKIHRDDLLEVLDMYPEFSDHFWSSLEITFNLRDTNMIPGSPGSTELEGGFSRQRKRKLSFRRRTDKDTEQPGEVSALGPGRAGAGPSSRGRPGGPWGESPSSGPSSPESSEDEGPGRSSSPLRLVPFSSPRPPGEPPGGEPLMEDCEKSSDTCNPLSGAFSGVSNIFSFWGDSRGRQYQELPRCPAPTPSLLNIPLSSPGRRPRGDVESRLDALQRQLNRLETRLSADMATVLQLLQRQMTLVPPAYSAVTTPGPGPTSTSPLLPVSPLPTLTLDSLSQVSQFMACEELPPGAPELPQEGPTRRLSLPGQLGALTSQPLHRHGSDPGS
Cytochrome P450 2C9, sequence (P11712 whole entry): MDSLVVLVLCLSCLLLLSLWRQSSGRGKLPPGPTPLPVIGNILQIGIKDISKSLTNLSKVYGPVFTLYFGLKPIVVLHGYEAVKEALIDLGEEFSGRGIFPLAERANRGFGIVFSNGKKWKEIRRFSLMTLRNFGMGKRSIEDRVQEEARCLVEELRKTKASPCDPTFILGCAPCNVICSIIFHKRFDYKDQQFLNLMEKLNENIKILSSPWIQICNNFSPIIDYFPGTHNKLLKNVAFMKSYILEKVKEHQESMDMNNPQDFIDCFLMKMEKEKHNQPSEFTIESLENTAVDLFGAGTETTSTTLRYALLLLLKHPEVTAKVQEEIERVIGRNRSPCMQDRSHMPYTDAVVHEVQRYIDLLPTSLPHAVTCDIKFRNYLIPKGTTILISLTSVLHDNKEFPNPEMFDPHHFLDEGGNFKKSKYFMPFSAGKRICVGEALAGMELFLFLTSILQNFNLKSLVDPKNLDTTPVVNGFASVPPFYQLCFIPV
Cytochrome P450 2D6, sequence (P10635 whole entry): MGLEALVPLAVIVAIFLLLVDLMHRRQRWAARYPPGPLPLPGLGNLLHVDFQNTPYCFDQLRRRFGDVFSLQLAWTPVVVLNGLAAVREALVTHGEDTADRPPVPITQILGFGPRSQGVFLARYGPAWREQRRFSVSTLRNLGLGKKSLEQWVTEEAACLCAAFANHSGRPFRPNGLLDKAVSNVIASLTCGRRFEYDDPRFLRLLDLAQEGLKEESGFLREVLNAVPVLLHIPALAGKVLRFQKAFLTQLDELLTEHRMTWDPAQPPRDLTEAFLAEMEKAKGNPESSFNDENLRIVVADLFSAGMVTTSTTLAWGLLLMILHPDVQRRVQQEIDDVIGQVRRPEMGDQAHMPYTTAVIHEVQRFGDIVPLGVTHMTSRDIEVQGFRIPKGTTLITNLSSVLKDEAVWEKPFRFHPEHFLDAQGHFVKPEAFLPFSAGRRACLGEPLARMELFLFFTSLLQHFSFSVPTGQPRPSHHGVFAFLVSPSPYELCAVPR

For the compound `CCC[C@@H](CCO)Nc1nc(N)nc2c1CN(C(=O)c1csc(C)n1)CC2`, the Cmax in data set [1] was 75 pg/g; in [9] it was 0 pg/g; in [14] it was 711 ng/g; in data set [20] it was 29 ng/mL. Also, the half-maximal inhibitory concentration (IC50) in [2] was more than 10 µM; in data set [4], more than 10 µM; in data set [7], 22 µM; in [11] it was more than 10 µM; in data set [17] it was more than 10 µM; in data set [19], more than 10 µM. Also, in data set [3], the AUClast was determined as 1410 ng·h/g. Also, the figures for the Tmax in data set [5] and in data set [18] were 0.5 h and 4 h, respectively. This compound also showed an AUC(0-t) in data set [6] of 70 ng·h/mL. Besides, the fraction unbound in [8] was 0.7. Besides, the Activity in data set [10], in data set [12] and in data set [15] was more than 10 µM in each case. Besides, the MEC in [13] was 1.5 µM. Also, the cytotoxic concentration (CC50) at 6 h in data set [16] is more than 24 µM.

By IC50 is commonly meant the concentration at which inhibition is half-maximal. Read a low IC50 as greater potency. Broadly, the AUC(0-t) is exposure summed from dosing to a finite time, without extrapolation to infinity. By CC50 is commonly meant the concentration giving 50% cytotoxicity.
